Measurements from patent US11912686B2 (Gilead Sciences, Inc., priority 2020, dated 2024).

The molecules below were run against human LPAR1 (Homo sapiens (Human), UniProt Q92633) (assay: LPAR1 intracellular calcium mobilization assay (antagonist mode, FLIPR)). Details: CHO-K1 EDG2 cells expressing human LPAR1, LPA 18:2 at EC80 (100 nM), test compound 0.5 nM to 10 μM.
Chain of human LPAR1 (Q92633 whole entry): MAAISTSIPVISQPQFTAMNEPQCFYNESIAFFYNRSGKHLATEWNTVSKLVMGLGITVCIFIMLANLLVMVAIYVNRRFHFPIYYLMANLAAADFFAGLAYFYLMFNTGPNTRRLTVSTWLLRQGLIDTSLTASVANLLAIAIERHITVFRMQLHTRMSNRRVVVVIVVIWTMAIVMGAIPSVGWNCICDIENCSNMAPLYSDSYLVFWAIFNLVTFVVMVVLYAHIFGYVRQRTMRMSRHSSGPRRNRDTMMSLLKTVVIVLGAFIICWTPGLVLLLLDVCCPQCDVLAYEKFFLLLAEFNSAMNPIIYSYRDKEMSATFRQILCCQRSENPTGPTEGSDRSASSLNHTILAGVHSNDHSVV
Type: cell-based
`C[C@@H](OC(=O)Nc1c(-c2ccc(NC(=O)C3(C#N)CC3C(F)(F)F)cn2)nnn1C)c1cccnc1Cl` (stereo partly drawn) [Compound 147, (R)-1-(2-chloropyridin-3-yl)ethyl (4-(5-(1-cyano-2-(trifluoromethyl)cyclopropane-1-carboxamido)pyridin-2-yl)-1-methyl-1H-1,2,3-triazol-5-yl)carbamate] was tested, and the EC50 was 33.9 nM. `CC1CC1(C#N)C(=O)Nc1ccc(-c2nnn(C)c2NC(=O)O[C@H](C)c2cccnc2Cl)nc1` (stereo partly drawn) [Compound 148, (R)-1-(2-chloropyridin-3-yl)ethyl (4-(5-(1-cyano-2-methylcyclopropane-1-carboxamido)pyridin-2-yl)-1-methyl-1H-1,2,3-triazol-5-yl)carbamate] gave an EC50 of 30.4 nM. `C[C@@H](OC(=O)Nc1c(-c2ccc(NC(=O)C3CC34CC4)cn2)nnn1C)c1cccnc1Cl` (stereo partly drawn) [Compound 149, (R)-1-(2-chloropyridin-3-yl)ethyl (1-methyl-4-(5-(spiro[2.2]pentane-1-carboxamido)pyridin-2-yl)-1H-1,2,3-triazol-5-yl)carbamate] was tested, and the EC50 was 329 nM. For `C[C@@H](OC(=O)Nc1c(-c2ccc(NC(=O)[C@@H]3CNC(=O)C3)cn2)nnn1C)c1cccnc1Cl` [Compound 150, (R)-1-(2-chloropyridin-3-yl)ethyl (1-methyl-4-(5-((S)-5-oxopyrrolidine-3-carboxamido)pyridin-2-yl)-1H-1,2,3-triazol-5-yl)carbamate], the EC50 was 880 nM. Work on `C[C@@H](OC(=O)Nc1c(-c2ccc(NC(=O)[C@@H]3CCC(=O)N3)cn2)nnn1C)c1cccnc1Cl` [Compound 151, (R)-1-(2-chloropyridin-3-yl)ethyl (1-methyl-4-(5-((S)-5-oxopyrrolidine-2-carboxamido)pyridin-2-yl)-1H-1,2,3-triazol-5-yl)carbamate] yielded an EC50 of 3150 nM. `C[C@@H](OC(=O)Nc1c(-c2ccc(NC(=O)[C@H]3CCC(=O)N3)cn2)nnn1C)c1cccnc1Cl` [Compound 152, (R)-1-(2-chloropyridin-3-yl)ethyl (1-methyl-4-(5-((R)-5-oxopyrrolidine-2-carboxamido)pyridin-2-yl)-1H-1,2,3-triazol-5-yl)carbamate] gave an EC50 of 3990 nM. In the case of `C[C@@H](OC(=O)Nc1c(-c2ccc(NC(=O)C3OCCO3)cn2)nnn1C)c1cccnc1Cl` [Compound 153, (R)-1-(2-chloropyridin-3-yl)ethyl (4-(5-(1,3-dioxolane-2-carboxamido)pyridin-2-yl)-1-methyl-1H-1,2,3-triazol-5-yl)carbamate], the EC50 is reported as 933 nM. `C[C@@H](OC(=O)Nc1c(-c2ccc(NC(=O)[C@H]3C[C@H](O)C3)cn2)nnn1C)c1cccnc1Cl` [Compound 154, (R)-1-(2-chloropyridin-3-yl)ethyl (4-(5-((1r,3R)-3-hydroxycyclobutane-1-carboxamido)pyridin-2-yl)-1-methyl-1H-1,2,3-triazol-5-yl)carbamate] was tested, and the EC50 was 668 nM. In the case of `C[C@@H](OC(=O)Nc1c(-c2ccc(NC(=O)[C@H]3C[C@@H](O)C3)cn2)nnn1C)c1cccnc1Cl` [Compound 155, (R)-1-(2-chloropyridin-3-yl)ethyl (4-(5-((1s,3S)-3-hydroxycyclobutane-1-carboxamido)pyridin-2-yl)-1-methyl-1H-1,2,3-triazol-5-yl)carbamate], the EC50 is reported as 748 nM. With `CO[C@H]1C[C@H](C(=O)Nc2ccc(-c3nnn(C)c3NC(=O)O[C@H](C)c3cccnc3Cl)nc2)C1` [Compound 156, (R)-1-(2-chloropyridin-3-yl)ethyl (4-(5-((1r,3R)-3-methoxycyclobutane-1-carboxamido)pyridin-2-yl)-1-methyl-1H-1,2,3-triazol-5-yl)carbamate] the EC50 was 50.7 nM. `CO[C@H]1C[C@@H](C(=O)Nc2ccc(-c3nnn(C)c3NC(=O)O[C@H](C)c3cccnc3Cl)nc2)C1` [Compound 157, (R)-1-(2-chloropyridin-3-yl)ethyl (4-(5-((1s,3S)-3-methoxycyclobutane-1-carboxamido)pyridin-2-yl)-1-methyl-1H-1,2,3-triazol-5-yl)carbamate] was tested, and the EC50 was 74.5 nM. Work on `C[C@@H](OC(=O)Nc1c(-c2ccc(NC(=O)C3[C@@H]4COC[C@@H]34)cn2)nnn1C)c1cccnc1Cl` (stereo partly drawn) [Compound 158, (R)-1-(2-chloropyridin-3-yl)ethyl (4-(5-((1R,5R)-3-oxabicyclo[3.1.0]hexane-6-carboxamido)pyridin-2-yl)-1-methyl-1H-1,2,3-triazol-5-yl)carbamate] yielded an EC50 of 117 nM. `C[C@@H](OC(=O)Nc1c(-c2ccc(NC(=O)C3C4CCOC43)cn2)nnn1C)c1cccnc1Cl` (stereo partly drawn) [Compound 159, (R)-1-(2-chloropyridin-3-yl)ethyl (4-(5-(2-oxabicyclo[3.1.0]hexane-6-carboxamido)pyridin-2-yl)-1-methyl-1H-1,2,3-triazol-5-yl)carbamate] showed an EC50 of 394 nM. `Cc1cc(C2(C(=O)Nc3ccc(-c4nnn(C)c4NC(=O)O[C@H](C)c4cccnc4Cl)nc3)CC2)on1` [Compound 160, (R)-1-(2-chloropyridin-3-yl)ethyl (1-methyl-4-(5-(1-(3-methylisoxazol-5-yl)cyclopropane-1-carboxamido)pyridin-2-yl)-1H-1,2,3-triazol-5-yl)carbamate] gave an EC50 of 1450 nM. `C[C@@H](OC(=O)Nc1c(-c2ccc(NC(=O)[C@@H]3C[C@H]3F)cn2)nnn1C)c1cc(F)cnc1F` [Compound 161, (R)-1-(2,5-difluoropyridin-3-yl)ethyl (4-(5-((1S,2R)-2-fluorocyclopropane-1-carboxamido)pyridin-2-yl)-1-methyl-1H-1,2,3-triazol-5-yl)carbamate] was tested, and the EC50 was 66.8 nM. Work on `C[C@@H](OC(=O)Nc1c(-c2ccc(NC(=O)C34CC(C#N)(C3)C4)cn2)nnn1C)c1cc(F)cnc1F` [Compound 162, (R)-1-(2,5-difluoropyridin-3-yl)ethyl (4-(5-(3-cyanobicyclo[1.1.1]pentane-1-carboxamido)pyridin-2-yl)-1-methyl-1H-1,2,3-triazol-5-yl)carbamate] yielded an EC50 of 84.7 nM. In the case of `C[C@@H](OC(=O)Nc1c(-c2ccc(NC(=O)C34CC(F)(C3)C4)cn2)nnn1C)c1cc(F)cnc1F` [Compound 163, (R)-1-(2,5-difluoropyridin-3-yl)ethyl (4-(5-(3-fluorobicyclo[1.1.1]pentane-1-carboxamido)pyridin-2-yl)-1-methyl-1H-1,2,3-triazol-5-yl)carbamate], the EC50 is reported as 32.6 nM. For `C[C@@H](OC(=O)Nc1c(-c2ccc(NC(=O)[C@@H]3CC3(F)F)cn2)nnn1C)c1cc(F)cnc1F` [Compound 164, (R)-1-(2,5-difluoropyridin-3-yl)ethyl (4-(5-((S)-2,2-difluorocyclopropane-1-carboxamido)pyridin-2-yl)-1-methyl-1H-1,2,3-triazol-5-yl)carbamate], the EC50 was 245 nM. For `C[C@@H](OC(=O)Nc1c(-c2ccc(NC(=O)C3(C(F)F)CC3)cn2)nnn1C)c1cc(F)cnc1F` [Compound 165, (R)-1-(2,5-difluoropyridin-3-yl)ethyl (4-(5-(1-(difluoromethyl)cyclopropane-1-carboxamido)pyridin-2-yl)-1-methyl-1H-1,2,3-triazol-5-yl)carbamate], the EC50 was 487 nM. `C[C@@H](OC(=O)Nc1c(-c2ccc(NC(=O)C3(C(F)F)CC3)cn2)nnn1C)c1cc(F)cnc1Cl` [Compound 166, (R)-1-(2-chloro-5-fluoropyridin-3-yl)ethyl (4-(5-(1-(difluoromethyl)cyclopropane-1-carboxamido)pyridin-2-yl)-1-methyl-1H-1,2,3-triazol-5-yl)carbamate] showed an EC50 of 238 nM.
